Consider three molecules from patent US12667580B2, “Retinoic acid precursor and anticancer drug composition comprising same” (INDUSTRIAL COOPERATION FOUNDATION JEONBUK NATIONAL …, priority 2021, dated 2026).

One series has as its system tumor model mice. Description: Tumor growth inhibition in tumor model mice. Format: in vivo, mouse. The following applies: i.v. on Days 1, 4, 7, 10, 13; RA 3 mg/kg, HBA 1.5 mg/kg, tRABA 5 mg/kg. As to the method: Next, the anticancer effect was evaluated by administering a therapeutic drug in the tumor model mice when the tumor size reached 50 mm^3. A therapeutic drug was intravenously administered on Days 1, 4, 7, 10, and 13 to the tumor model mice.

For another series, the system named is GSH in A549 cells. Description: Intracellular GSH levels. In kind it is cell-based. More on the design: dose or concentration left out as unconfirmed. As to the method:
Therefore, an experiment was conducted to measure intracellular GSH levels in A549 cells treated with tRABA.

Series [1] relates to calreticulin (CRT) in A549 cells. The experiment in a line: CRT level by flow cytometry. In kind it is cell-based. As to the method:
Next, since immunogenic apoptosis enhances immunogenicity and anticancer effects by releasing damage-associated molecular pattern (DAMP) substances during the cell dying process, an experiment was performed to confirm whether tRABA nanoparticles induce immunogenic cell death to improve immunogenicity. First, the expression levels of DAMPs such as calreticulin (CRT) and high mobility group box 1 (HMGB1) were confirmed as endoplasmic reticulum (ER) stress markers.
For orientation: Flow cytometry measures light scatter and fluorescence of single cells or particles in a stream.

For series [2], the system named is HMGB1 released from A549 cells. The experiment in a line: HMGB-1 release. In kind it is cell-based. As to the method:
Next, since it is known that HMGB-1 is a nuclear protein that binds to DNA and is triggered by an apoptosis inducer and that in the late stage of apoptosis, cells are destroyed and HMGB-1 is released into the tumor microenvironment to induce dendritic cell maturation and antigen presentation, an experiment was performed to confirm the effect of tRABA nanoparticles on HMGB-1 release.

The next series deals with A549 cells. Description: MTT cytotoxicity, A549. In kind it is cell-based. Conditions: 24 hours, RA (210 mM), HBA (220 mM). As to the method: Next, to evaluate the cytotoxicity of tRABA, a 3-(4,5-dimethylthiazol-2-yl)-2,5-diphenyltetrazolium bromide (MTT)) analysis was performed. The cell survival rate was measured 24 hours after A549 cells were treated with RA, HBA, and tRABA, and the results are shown in FIG. 8C.

The subject of series [3] is SW620 multicellular spheroids. The experiment in a line: Tumor penetration in multicellular spheroids. In kind it is cell-based. The following applies: 6 hours. An excerpt: Next, SW620 multicellular spheroids were used to evaluate the tumor penetration of Nile Red-loaded tRABA nanoparticles. […] This means that tRABA penetrated much deeper into the spheroids than RABA. From this, it could be confirmed that tRABA has excellent tumor penetration.

Series [4] can be described thus: Self-assembly of nanoparticles in water, particle size and SEM. In kind it is physicochemical. The protocol: RABA dissolved in tetrahydrofuran (THF) was added to water while stirring. During dilution in water, strong light scattering occurred due to the Tyndall phenomenon. […] The mean hydrodynamic diameter was measured to be ˜120 nm.
It was confirmed that the nanoparticles existed in a spherical colloidal state. In addition, an experiment was performed to confirm self-assembly of Compound 2, which is produced during the preparation process of RA and RABA.

The nature of series [5]: Reactivity of RABA in the presence of H2O2 (1H NMR after incubation). In kind it is physicochemical. The protocol: To evaluate the reactivity of the prepared RABA in the presence of H2O2, ^1H NMR of the RABA was taken after incubation in a 5 mM H2O2 solution.
The peaks at 7.3 and 7.8 ppm corresponding to aromatic protons disappeared, and new peaks at 6.8 and 7.1 ppm appeared. The peaks corresponding to benzylic proton were shifted from 5.1 ppm to 5.0 ppm. On the other hand, there was no peak shift in the RABA incubated in water without H2O2.

For hydroxybenzyl alcohol [HBA], the tumor growth inhibition result with tumor model mice is “negligible inhibitory effect on tumor growth”. Besides, the “intracellular GSH levels” value with GSH in A549 cells is “no effect on the GSH levels”. Further, the “level of CRT” value in series [1] is listed as “almost no effect”. In series [2], the “level of HMGB-1” value is listed as “did not affect the level of HMGB-1”.

`CC1=C(/C=C/C(C)=C/C=C/C(C)=C/C(=O)O)C(C)(C)CCC1` [RA, Retinoic acid]: the “cell survival rate / cytotoxicity (MTT)” value in the series on A549 cells was “the cell survival rate decreased”.

Take `CC1=C(/C=C/C(C)=C/C=C/C(C)=C/C(=O)OCc2ccc(B(O)O)cc2)C(C)(C)CCC1` [RABA]: the “spheroid penetration (fluorescence)” value in series [3] is listed as “weak fluorescence”. Further, the self-assembly into nanoparticles result in series [4] (THF solution added to water, SEM) is given as “the nanoparticles were being formed well”. The mean hydrodynamic diameter in series [4] (nanoparticles in water) is listed as approximately 120 nm. In series [5] (incubated in water without H2O2), the “stability in water (1H NMR peak shift)” value was “no peak shift”. Moreover, in series [5] (incubation in a 5 mM H2O2 solution), the “reactivity in the presence of H2O2 (1H NMR peak shift)” value is on record as “a shift of the peak due to the release of HBA was observed”.
